{"source": "patent US20220288004A1", "about": "“TREATMENT AND PREVENTION OF AGING RELATED-DISEASE AND/OR AGING BY THE INHIBITION OF SPHINGOLIPIDS” (ECOLE POLYTECHNIQUE FEDERALE DE LAUSANNE (EPFL), priority 2019, published 2022)", "key": {"aged C57Bl/6JRj mice": {"tested_on": "aged C57Bl/6JRj mice", "assay": "Oral glucose tolerance test in aged mice", "format": "in vivo, mouse", "conditions": "aged chow-fed myriocin treated mice", "excerpt": "Frailty is associated with multimorbidity, including diabetes."}, "[1]": {"tested_on": "freshly isolated MuSCs from aged C57BL/6JRj mice", "assay": "Ex vivo analysis of MuSCs cultured in myriocin containing medium", "format": "cell-based, mouse", "method": "Ex vivo analysis of MuSCs. MuSCs were isolated as described above, and seeded in 96- or 48-well plates. The cells were incubated in 30 μM myriocin containing medium (Ham's F-10 nutrient mixture, FBS 20%, basic fibroblast growth factor 2.5 ng/mL, penicillin 100 U/mL, streptomycin 100 μg/mL) for 72 hours. PFA 4% was applied for 15 min, the cells were washed three times for 10 min with PBS, and were blocked in 2% BSA in PBS. The cells were then incubated in primary antibodies MYOD (1:50, LabForce) and MYOG (1:50, Santa Cruz) overnight at 4° C. Secondary antibodies were coupled with Alexa-488 or Alexa-568 fluorochromes (Life Technology) and mounted with Dako Mounting Medium. Leica DMI 4000 microscope was used to image the cells. Quantification of the MYOD+ and MYOG+ cell number was based on more than 500 cells per condition."}, "[2]": {"tested_on": "human primary myoblasts from IBM donors", "assay": "Proteostat staining of IBM patient myoblasts", "format": "cell-based", "conditions": "30 μM MYR for 24 h", "method": "FIG. 16. Quantitative Proteostat signal normalized over the number of cells in human primary myoblasts from IBM donors (above) and APPSwe-expressing C2C12 myoblasts (below) decreases after treatment with 30 μM MYR for 24 h. Values are expressed as mean±s.e.m. ***P:0.001; ****P:0.0001. Differences between two groups were assessed using Student's two-tailed t-tests (error bars: 95% confidence intervals).\nCell lines from IBM patients featuring impaired proteostasis were obtained. This was validated using Proteostat staining which targets general disruption in proteostasis."}, "mdx mice [3]": {"tested_on": "mdx mice", "assay": "Myriocin treatment of mdx mice (Duchenne muscular dystrophy model)", "format": "in vivo, mouse", "method": "Next the activity of sphingolipid synthesis was inhibited in a mouse model of Duchenne muscular dystrophy. Mdx, a dystrophin deficient mouse model, was treated with myriocin (0.4 mg/kg/3 times a week intraperitoneally) for 2 months. […] Furthermore, after downhill running, plasma levels of creatine kinase (CK) were lower in myriocin treated mice compared to controls (FIG. 8f).\nEndurance running test. The exercise regimen on a treadmill commenced at a speed of 9 cm/s. As the mice were aged, an inclination of 0 degrees was used. Mice were considered to be exhausted, and removed from the treadmill if they received 7 or more shocks (0.2 mA) per minute for two consecutive minutes. The distance traveled and time before exhaustion were registered as maximal running distance and time.\nGrip strength. Muscle strength was assessed by grip strength test. The grip strength of each mouse was measured on a pulldown grid assembly connected to a grip strength meter (Columbus Instruments). The mouse was drawn along a straight line parallel to the grip, providing peak force. The experiment was repeated three times, and the highest value was included in the analysis.\nRotarod test. The rotarod test measures muscle strength, coordination, and endurance. Mice were left undisturbed in the room for 30 min. The speed of the rotating cylinder (rotarod) increased from 0 to 40 rpm in 5 min. Each mouse had 3 trials per day for 3 consecutive days. The latency and speed the mouse reached it passive rotation or fall from the rotor was recorded, and the latency and speed of the best trial of the second day is presented."}, "mdx mice [4]": {"tested_on": "mdx mice", "assay": "Transplantation of MuSCs from myriocin treated donors into cardiotoxin-injured mdx recipients", "format": "in vivo, mouse", "excerpt": "Decline in tissue regenerative potential is a major hallmark of mammalian aging, including skeletal muscle. It was next asked the question whether myriocin treatment induces functional improvement of MuSCs, boosting their regenerative capacity. MuSCs from aged mice treated or untreated with myriocin for 5 months were isolated, and transplanted into tibialis anterior (TA) muscles of recipient mice. The recipient mice were either aged (20-month-old) C57Bl/6JRj or aged (1-year-old) mdx mice, a mouse model of Duchenne muscular dystrophy lacking dystrophin protein (FIG. 4a). Before MuSC transplantation, injury was induced by cardiotoxin injection to TA of all recipient mice. […] At both 7 and 14 days after transplantation the inflammatory area was also smaller (FIG. 12a-b) in mdx recipients of MuSCs isolated from myriocin treated mice. […] Thus, transplantation of MuSCs derived from myriocin treated donors induce major morphological improvements following cardiotoxin-induced muscle injury.\nCardiotoxin-induced muscle damage and MuSC transplantation. […]\nHistology. […] Microscopy images of fluorescence from muscle fibers were analyzed using the ImageJ software. Centralized nuclei percent, minimal Feret diameter and cross-sectional area in TA muscles were determined using the ImageJ software quantification of laminin, dystrophin, and DAPI-stained muscle images from VS120-S6-W slides scanner (Olympus). […] The mean cross-sectional area of muscle fibers was calculated as the average cross-sectional area of 2,000 fibers per from sample. 7-8 mouse samples per condition were used for histological quantification of donor mice. The eMyHC quantification is expressed as proportion of eMyHC positive signal over total TA cross sectional area. Following MuSC injection in CTX injected recipient mice, inflammation representing the regenerative stage of muscle was quantified by ImageJ software as proportion of inflammatory area over total area of the TA muscle cross section. The PAX7-positive cells were quantified as the average number of cells per field of more than 30 randomly chosen fields from a mouse TA. […]"}, "[5]": {"conditions": "myriocin 0.4 mg/kg 3 times a week intraperitoneally, 2 months"}}}
{"smiles": "CCCCCCC(=O)CCCCCCC=CCC(O)C(O)C(N)(CO)C(=O)O", "note": "(stereo not shown) [myriocin, 2-Amino-3,4-dihydroxy-2-(hydroxymethyl)-14-oxoicos-6-enoic acid]", "values": [{"measurement": "glucose tolerance", "setting": "aged C57Bl/6JRj mice", "result": "improved"}, {"measurement": "MYOD protein level", "setting": "[1]; 30 μM myriocin, 72 h, vs DMSO", "result": "elevated"}, {"measurement": "MYOG protein level", "setting": "[1]; 30 μM myriocin, 72 h, vs DMSO", "result": "elevated"}, {"measurement": "Ki67+ MuSC count", "setting": "[1]; MuSCs from untreated aged mice, 72 h in myriocin containing medium vs DMSO", "result": "higher"}, {"measurement": "Proteostat signal normalized over the number of cells (protein aggregates)", "setting": "[2]", "result": "clearing protein aggregates"}, {"measurement": "Proteostat signal normalized over the number of cells (protein aggregates)", "setting": "[2]; listed as MYR", "result": "decreases"}, {"measurement": "plasma levels of creatine kinase (CK)", "setting": "mdx mice [3]; after downhill running, myriocin 2 months vs controls", "result": "lower"}, {"measurement": "grip strength", "setting": "mdx mice [3]; [5]", "result": "improved"}, {"measurement": "performance in rotarod test", "setting": "mdx mice [3]; [5]", "result": "improved performance"}, {"measurement": "performance in uphill running test", "setting": "mdx mice [3]; [5]", "result": "improved performance"}, {"measurement": "inflammatory area of TA", "setting": "mdx mice [4]; 7 and 14 days after transplantation", "result": "smaller"}, {"measurement": "count of PAX7+ cells in TA", "setting": "mdx mice [4]; 7 days after transplantation", "result": "elevated count"}, {"measurement": "myogenesis of dystrophin-positive fibers", "setting": "mdx mice [4]; 7 days after transplantation", "result": "stimulated myogenesis"}]}
